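1) Cells in 96-well plates. 2) Compound, 48 h, 5 concentrations. 3) Linear interpolation between surrounding doses. 4) Unreached endpoint = highest concentration. TGI denotes the concentration required for complete inhibition of growth.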
Assays:
Assay in all cases: NCI anticancer screen, dose series, 48 h
A498 renal = tested on: A498 renal
NCI-H23 lung = tested on: NCI-H23 lung
RPMI-8226 leukemia = tested on: RPMI-8226 leukemia
COLO 205 colon = tested on: COLO 205 colon
SNB-75 CNS = tested on: SNB-75 CNS
UO-31 renal = tested on: UO-31 renal
KM20L2 colon = tested on: KM20L2 colon
SN12C renal = tested on: SN12C renal
HCT-116 colon = tested on: HCT-116 colon
OVCAR-3 ovarian = tested on: OVCAR-3 ovarian
IGROV1 ovarian = tested on: IGROV1 ovarian
U251 CNS = tested on: U251 CNS
SF-295 CNS = tested on: SF-295 CNS
HT29 colon = tested on: HT29 colon
MALME-3M melanoma = tested on: MALME-3M melanoma
M19-MEL melanoma = tested on: M19-MEL melanoma
DMS 273 small cell lung = tested on: DMS 273 small cell lung
SNB-78 CNS = tested on: SNB-78 CNS
HOP-62 NSCLC = tested on: HOP-62 NSCLC
ACHN renal = tested on: ACHN renal

| Structure (SMILES) | TGI (A498 renal) [µM] | TGI (NCI-H23 lung) [µM] | TGI (RPMI-8226 leukemia) [µM] | TGI (COLO 205 colon) [µM] | TGI (SNB-75 CNS) [µM] | TGI (UO-31 renal) [µM] | TGI (KM20L2 colon) [µM] | TGI (SN12C renal) [µM] | TGI (HCT-116 colon) [µM] | TGI (OVCAR-3 ovarian) [µM] | TGI (IGROV1 ovarian) [µM] | TGI (U251 CNS) [µM] | TGI (SF-295 CNS) [µM] | TGI (HT29 colon) [µM] | TGI (MALME-3M melanoma) [µM] | TGI (M19-MEL melanoma) [µM] | TGI (DMS 273 small cell lung) [µM] | TGI (SNB-78 CNS) [µM] | TGI (HOP-62 NSCLC) [µM] | TGI (ACHN renal) [µM] |
| --- | --- | --- | --- | --- | --- | --- | --- | --- | --- | --- | --- | --- | --- | --- | --- | --- | --- | --- | --- | --- |
| CC(C)=CC(=O)OC1C2C(C)=CC(O)C(O)C2(C)C2C3(O)OCC24C(CC(=O)OC14)C(C)C3O (centres undefined) | 4.07 | 0.387 | 0.131 | 2.77 | 0.693 | 8.57 | 4.57 | 6.9 | 0.381 | 0.171 | 0.706 | 0.248 | 0.81 | 0.836 | 0.0844 | 0.127 | 0.101 | 1.11 | 0.683 | – |
| COc1cc(/C=C/C2=C(C#N)C(=O)OC2(C)C)ccc1O | > 100 | > 100 | 49.6 | > 100 | > 100 | > 100 | > 100 | > 100 | > 100 | > 100 | > 100 | 31.7 | > 100 | > 100 | > 100 | > 100 | > 100 | > 100 | > 100 | > 100 |
| Nc1n[nH]c(CCCCCCCc2nc(N)n[nH]2)n1 | > 100 | > 100 | > 100 | – | > 100 | > 100 | – | > 100 | > 100 | > 100 | – | > 100 | – | > 100 | > 100 | > 100 | – | > 100 | > 100 | > 100 |
